Results from patent US10590143B2, “Herbicidally active (alkynyl-phenyl)-substituted cyclic dione compounds and derivatives thereof” (Syngenta Limited, priority 2013, dated 2020).
Read-outs that look alike come from different tables or passages of the source.

Experiments:
Type in all cases: in vivo
[1] = system: Abutilon theophrasti (ABUTH); test: Biological Example 1 glasshouse assay for herbicidal activity; conditions: 312 h, 13 days after application, read-out: percentage phytotoxicity ABUTH
Description: (§1) Seeds of a variety of test plant species were sown in standard soil** in pots. After cultivation for one day (pre-emergence) or after 8 days cultivation (post-emergence) under controlled conditions in a glasshouse (at 24/16° C., day/night; 14 hours light; 65% humidity), the plants were sprayed with an aqueous spray solution derived from the formulation of the technical active ingredient (the test herbicide) in acetone/water (50:50) solution containing 0.5% Tween 20 (polyoxyethylene sorbitan monolaurate, CAS Reg. No. 9005-64-5). The test plants were then grown on under controlled conditions in a glasshouse (at 24/16° C., day/night; 14 hours light; 65% humidity) and watered twice daily. 13 Days after application of the test herbicide, for pre- and post-emergence, the test was evaluated visually for percentage phytotoxicity to each plant (where 100%=total damage to plant; 0%=no damage to plant). Generally, each test herbicide is only tested on 1 plant per plant species for each application rate tested and for each application timing. **The “standard soil” in Biological Example 1 is usually a “sand” or “sandy loam” type of soil.
(§2) Dicotyledonous weeds: ABUTH=Abutilon theophrasti; AMARE=Amaranthus retroflexus. Grassy monocotyledonous weeds: SETFA=Setaria faberi; ALOMY=Alopecurus myosuroides; ECHCG=Echinochloa crus-galli; ZEAMX=Zea mays (corn, maize, e.g. volunteer corn).

[2] = system: Alopecurus myosuroides (ALOMY); test: as above; conditions: 312 h, 13 days after application, read-out: percentage phytotoxicity ALOMY
Description: as §1, §2

[3] = system: Amaranthus retroflexus (AMARE); test: as above; conditions: Amaranthus retroflexus, 312 h, 13 days after application, read-out: percentage phytotoxicity AMARE
Description: as §1, §2

[4] = system: Echinochloa crus-galli (ECHCG); test: as above; conditions: Echinochloa crus-galli, 312 h, 13 days after application, read-out: percentage phytotoxicity ECHCG
Description: as §1, §2

[5] = system: Setaria faberi (SETFA); test: as above; conditions: 312 h, 13 days after application, read-out: percentage phytotoxicity SETFA
Description: as §1, §2

[6] = system: Zea mays (ZEAMX, corn, maize, e.g. volunteer corn); test: as above; conditions: Zea mays, 312 h, 13 days after application, read-out: percentage phytotoxicity ZEAMX
Description: as §1, §2

[7] = system: Avena fatua (AVEFA); test: Biological Example 2 glasshouse assay for herbicidal activity; conditions: post-emergence, 360 h, 14 or 15 DAA, 0.2% v/v X-77, read-out: percentage phytotoxicity AVEFA
Description: (§3) Seeds of a variety of monocotyledonous and dicotyledonous test plants are sown in standard soil in pots. The plants are cultivated for one day (for pre-emergence) or for about 12 days (range=10-13 days) (for post-emergence) under controlled conditions in a glasshouse (warm climate species at 24/18° C., cool climate species at 20/16° C., both at day/night; 16 hours light; 65% humidity).
(§4) An “instant formulation”, known as the “IF50”, containing 50 g/litre (i.e. 5% w/v) of the “technical” (i.e. unformulated) active ingredient is prepared by dissolving the active ingredient in a mixture of organic solvents and emulsifier, details of which are provided in the Table below. This IF50 is then mixed with a small, variable amount of acetone to aid dissolution, before addition of a 0.2% v/v aqueous solution of the adjuvant X-77 (which is a mixture of alkyl aryl polyoxyethylene glycols and free fatty acids in isopropanol, CAS Registry number 11097-66-8), as the aqueous diluent, to form an aqueous spray solution which contains a predetermined concentration of the active ingredient (which varies depending on the application rate of the active ingredient to the plants) and 0.2% v/v of the adjuvant X-77. This aqueous spray solution is then sprayed onto the plants, after one day's cultivation (for pre-emergence) or after about 12 days' cultivation (for post-emergence).
(§5) The test plants are then grown on, in a glasshouse (greenhouse) under controlled conditions (at either 24/18° C. or 20/16° C. (day/night) as mentioned above; 16 hours light; 65% humidity) and are watered twice daily. Either 14 or 15 days after application of the herbicide (14 or 15 DAA) (for post-emergence), or 20 days after application of the herbicide (20 DAA) (for pre-emergence), the test plants are evaluated visually, and an assessed percentage phytotoxicity score is given for each herbicidal application on each plant species (where 100%=total damage to plant; 0%=no damage to plant).
(§6) Some of the typical test plants are as follows: • Cool climate crop plants: Triticum aestivum (TRZAW, winter wheat), Brassica napus (BRSNN, rape, also called oilseed rape or rapeseed), Beta vulgaris (BEAVA, sugarbeet). • Warm climate crop plants: Glycine max (GLXMA, soybean). • Cool climate (“cool season”) grassy monocotyledonous weeds: Alopecurus myosuroides (ALOMY), Avena fatua (AVEFA), Lolium perenne (LOLPE), Poa annua (POAAN), Bromus tectorum (BROTE). • Warm climate (“warm season”) grassy monocotyledonous weeds: Setaria faberi (SETFA), SORVU (Sorghum bicolor (L.) Moench ssp. Bicolor, or Sorghum vulgare Pers.), Digitaria sanguinalis (DIGSA), Echinochloa crus-galli (ECHCG), Brachiaria plantaginea (BRAPL); Zea mays (ZEAMX, corn, maize, e.g. volunteer corn).

[8] = system: Setaria faberi (SETFA); test: as above; conditions: post-emergence, 360 h, 14 or 15 DAA, 0.2% v/v X-77, read-out: percentage phytotoxicity SETFA
Description: as §3, §4, §5, §6

[9] = system: Triticum aestivum (TRZAW, winter wheat); test: as above; conditions: post-emergence, 360 h, 14 or 15 DAA, 0.2% v/v X-77, read-out: percentage phytotoxicity TRZAW
Description: as §3, §4, §5, §6

[10] = post-emergence, post-emergence, 8 g/ha

Structure (SMILES) | pest or weed control at 250 g/ha ([1]; post-emergence, post-emergence) [%] | pest or weed control at 30 g/ha ([1]; pre-emergence, pre-emergence) [%] | pest or weed control at 250 g/ha ([1]; pre-emergence, pre-emergence) [%] | pest or weed control at 250 g/ha ([2]; post-emergence) [%] | pest or weed control at 30 g/ha ([2]; pre-emergence) [%] | pest or weed control at 250 g/ha ([2]; pre-emergence) [%] | pest or weed control at 250 g/ha ([3]; post-emergence, post-emergence) [%] | pest or weed control at 30 g/ha ([3]; pre-emergence, pre-emergence) [%] | pest or weed control at 250 g/ha ([3]; pre-emergence, pre-emergence) [%] | pest or weed control at 250 g/ha ([4]; post-emergence, post-emergence) [%] | pest or weed control at 30 g/ha ([4]; pre-emergence, pre-emergence) [%] | pest or weed control at 250 g/ha ([4]; pre-emergence, pre-emergence) [%] | pest or weed control at 250 g/ha ([5]; post-emergence, post-emergence) [%] | pest or weed control at 30 g/ha ([5]; pre-emergence, pre-emergence) [%] | pest or weed control at 250 g/ha ([5]; pre-emergence, pre-emergence) [%] | pest or weed control at 250 g/ha ([6]; post-emergence, post-emergence) [%] | pest or weed control at 30 g/ha ([6]; pre-emergence, pre-emergence) [%] | pest or weed control at 250 g/ha ([6]; pre-emergence, pre-emergence) [%] | also measured
CC#Cc1cc(F)c(C2=C(OC(=O)OC(C)C)C3CCC(C3)C2=O)c(OC)c1 (stereo not drawn) [Compound P3] | 80 | 0 | 10 | 100 | 70 | 100 | 40 | 30 | 60 | 100 | 80 | 100 | 100 | 20 | 80 | 100 | 80 | 100 | pest or weed control at 8 g/ha [1, 10]: 10%; pest or weed control at 30 g/ha ([1]; post-emergence, post-emergence): 10%; pest or weed control at 8 g/ha ([2]; post-emergence, 8 g/ha): 60%; pest or weed control at 30 g/ha ([2]; post-emergence): 80%; pest or weed control at 8 g/ha [3, 10]: 0%; pest or weed control at 30 g/ha ([3]; post-emergence, post-emergence): 0%; pest or weed control at 8 g/ha [4, 10]: 80%; pest or weed control at 30 g/ha ([4]; post-emergence, post-emergence): 100%; pest or weed control at 8 g/ha [5, 10]: 60%; pest or weed control at 30 g/ha ([5]; post-emergence, post-emergence): 80%; pest or weed control at 8 g/ha [6, 10]: 90%; pest or weed control at 30 g/ha ([6]; post-emergence, post-emergence): 100%; pest or weed control at 30 g/ha ([7]; 30 g/ha): 90%; pest or weed control at 250 g/ha ([7]; 250 g/ha): 90%; pest or weed control at 30 g/ha ([8]; 30 g/ha): 100%; pest or weed control at 250 g/ha ([8]; 250 g/ha): 100%; plant injury at 30 g/ha ([9]; 30 g/ha): 80%; plant injury at 250 g/ha ([9]; 250 g/ha): 90%
COc1cc(C#CCl)cc(F)c1C1C(=O)C2CCC(C2)C1=O (stereo not drawn) [Compound A8, 3-[4-(2-chloroethynyl)-2-fluoro-6-methoxy-phenyl]bicyclo[3.2.1]octane-2,4-dione] | 0 | 10 | 0 | 70 | 40 | 60 | 10 | 50 | 40 | 70 | 30 | 60 | 70 | 60 | 60 | 50 | 60 | 70 | –
